Data reported in patent US9675609B2 (priority 2015, dated 2017).
Where two headings read alike, the source gives them in different places.

Tests used:
[1] = test system: human tumor xenografts; details: human tumor xenografts in mice; Pantazis et al.; cited from earlier work
[2] = format: physicochemical; details: PSD of raw powders
[3] = PK absorption of CZ48 in dogs; format: in vivo; details: Dog, 400 mg/kg based on API content
Text: Tmax refers to time to reach Cmax.

[4] = test system: human xenografts; assay: Raw CZ48 powders in cottonseed oil against 29 human xenografts in nude mice; format: in vivo; details: cancerous mice
Text: (§1) Raw or native CZ48 powders have been intensively tested against human xenografts grown in nude mice. […] Cmax refers to the peak plasma concentration of the drug after administration.

[5] = test system: human HT29-colon tumor; details: nude mice; Cao et al. Cancer Research 2009; cited from earlier work
[6] = PK studies of raw CZ48 cottonseed oil suspension in mice; details: dose 100 mg/kg or higher
Text: as §1

[7] = Wall et al. 1969; Giovanella et al. 1991; cited from earlier work
[8] = analyte in blood, source CZ48 composite particles equivalent to 400 mg/kg API, single dose, female healthy mice, CPT is the metabolite

In the case of `CC[C@@]1(O)C(=O)OCc2c1cc1n(c2=O)Cc2cc3c([N+](=O)[O-])cccc3nc2-1` [9NC, 9-nitrocamptothecin], the “times more potent than CPT” value [1] is listed as 2-3 times.

`CC[C@@]1(O)C(=O)OCc2c1cc1n(c2=O)Cc2cc3ccccc3nc2-1` [CPT, 20(S)-camptothecin, reference compound] gave an AUC0-24 [8] of 51.7 ng·h/mL, a Cmax [8] of 26.0 ng/mL and a Tmax [8] of 30 min.

For `CCC(=O)O[C@]1(CC)C(=O)OCc2c1cc1n(c2=O)Cc2cc3ccccc3nc2-1` [CZ48, camptothecin-20-O-propionate hydrate], the “D[4,3]” value [2] was 7.612 μm, the “d(0.1)” value [2] was 2.612 μm and the “d(0.5)” value [2] was 6.220 μm. For the same molecule, the “d(0.9)” value [2] was 14.556 μm, the AUC0-24 [3] was 38.7 ng·h/mL and the Cmax [3] was 3.4 ng/mL. The Tmax [3] was 240 min, the “Cmax minimum requirement for a positive effect” value [4] was 100 ng/mL and the Tmax (Mouse, 400 mg/kg based on API content) was 60 min. For the same molecule, the Tmax [8] was 30 min, the “dose needed to achieve the same result (good activity against HT29-colon tumor)” value [5] was 1000 mg/kg and the Cmax [6] was “greater than 100 ng/ml”.

In the case of `CC[C@@](O)(C(=O)[O-])c1cc2n(c(=O)c1CO)Cc1cc3ccccc3nc1-2.[Na+]` [sodium carboxylate salt], the “potency relative to native camptothecin with closed lactone ring” value [7] is listed as 10%.
